Reference: PubChem BioAssay AID248 (DTP/NCI, 2004)
Where “and” joins values, the source holds several entries; their conditions need not be identical. Equal entries are not always repeated. Inconclusive results and toxic doses are left out. No stated cut-off is given here; in the data, active means T/C of 150% or more; inactive means T/C below 125%.

System: L1210 leukemia ip in BDF1 mice, survival T/C
Experiment: NCI In Vivo Anticancer Drug Screen. Data for tumor model L1210 Leukemia (intraperitoneal) in B6D2F1 (BDF1) mice
Details: endpoint: mean survival time, higher = longer survival
In short: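 Mice bearing the transplanted tumor received compound or vehicle. Survival of the treated group was divided by that of the vehicle-treated control group to give the ratio.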

[1] = dose: 100.0 mg/kg/injection, schedule: Q01DX009 (ip), vehicle: saline
[2] = dose: 100.0 mg/kg/injection, schedule: Q04DX003 (ip), vehicle: saline
[3] = dose: 200.0 mg/kg/injection, schedule: Q01DX009 (ip), vehicle: saline
[4] = dose: 400.0 mg/kg/injection, schedule: Q01DX009 (ip), vehicle: saline
[5] = dose: 25.0 mg/kg/injection, schedule: Q01DX009 (ip), vehicle: saline with Tween-80
[6] = dose: 50.0 mg/kg/injection, schedule: Q01DX009 (ip), vehicle: saline with Tween-80
[7] = dose: 100.0 mg/kg/injection, schedule: Q01DX009 (ip), vehicle: saline with Tween-80
[8] = dose: 100.0 mg/kg/injection, schedule: Q04DX003 (ip), vehicle: saline with Tween-80
[9] = dose: 200.0 mg/kg/injection, schedule: Q01DX009 (ip), vehicle: saline with Tween-80
[10] = dose: 200.0 mg/kg/injection, schedule: Q04DX003 (ip), vehicle: saline with Tween-80
[11] = dose: 400.0 mg/kg/injection, schedule: Q04DX003 (ip), vehicle: saline with Tween-80
[12] = dose: 100.0 mg/kg/injection, schedule: Q01DX009 (ip), vehicle: Klucel (hydroxypropylcellulose) (HPC)
[13] = dose: 200.0 mg/kg/injection, schedule: Q01DX009 (ip), vehicle: Klucel (hydroxypropylcellulose) (HPC)
[14] = dose: 400.0 mg/kg/injection, schedule: Q01DX009 (ip), vehicle: Klucel (hydroxypropylcellulose) (HPC)
[15] = dose: 100.0 mg/kg/injection, schedule: Q04DX003 (ip), vehicle: Klucel (hydroxypropylcellulose) (HPC)
[16] = dose: 200.0 mg/kg/injection, schedule: Q04DX003 (ip), vehicle: Klucel (hydroxypropylcellulose) (HPC)
[17] = dose: 400.0 mg/kg/injection, schedule: Q04DX003 (ip), vehicle: Klucel (hydroxypropylcellulose) (HPC)

Measured: T/C

CC(O)C(F)(F)C(F)(F)C(F)(F)C(C)O (configuration not stated)
inactive: [1] 97 % of control | [2] 102 % of control | [3] 104 % of control | dose: 200.0 mg/kg/injection, schedule: Q04DX003 (ip), vehicle: saline 96 % of control | [4] 109 % of control | dose: 400.0 mg/kg/injection, schedule: Q04DX003 (ip), vehicle: saline 96 % of control

Cc1cc(O)n(Cc2ccccc2)c(=O)c1
inactive: [5] 96 % of control | [6] 93 % of control | [7] 93 % of control | [8] 109 % of control | [9] 94 % of control | [10] 98 % of control | [11] 90 % of control

Brc1ccccc1Nn1c2ccccc2c2ccccc21
inactive: [12] 103 % of control | [13] 95 % of control | [14] 103 % of control

Cc1ccc(/C(O)=C\C(=S)SS)cc1
inactive: dose: 100.0 mg/kg/injection, schedule: Q01DX001 (ip), vehicle: Klucel (hydroxypropylcellulose) (HPC) 108 % of control | [1] 100 % of control | [15] 97 % of control | dose: 200.0 mg/kg/injection, schedule: Q01DX001 (ip), vehicle: Klucel (hydroxypropylcellulose) (HPC) 100 % of control | [3] 102 % of control | [16] 90 % of control | dose: 400.0 mg/kg/injection, schedule: Q01DX001 (ip), vehicle: Klucel (hydroxypropylcellulose) (HPC) 97 % of control | [4] 100 % of control | [17] 92 % of control

COC(=O)Nc1ccc(N)c(NC(=O)OC)n1
inactive: [12] 92 % of control | [15] 106 % of control | [13] 89 % of control | [16] 99 % of control | [14] 87 % of control | [17] 100 % of control

Cc1cc(=O)c2ccccc2[nH]1
inactive: dose: 25.0 mg/kg/injection, schedule: Q04DX003 (ip), vehicle: saline 94 % of control | dose: 50.0 mg/kg/injection, schedule: Q04DX003 (ip), vehicle: saline 100 % of control | [2] 94 % of control and 96 % of control

Cn1cnc([N+](=O)[O-])c1Sc1nc(N)nc2c1ncn2C1CC(O)C(CO)O1 (configuration not stated)
active: dose: 6.25 mg/kg/injection, schedule: Q01DX005 (ip), vehicle: saline 155 % of control | dose: 12.5 mg/kg/injection, schedule: Q01DX005 (ip), vehicle: saline 173 % of control | dose: 25.0 mg/kg/injection, schedule: Q01DX005 (ip), vehicle: saline 150 % of control
inactive: dose: 100.0 mg/kg/injection, schedule: Q01DX005 (ip), vehicle: saline 94 % of control | dose: 200.0 mg/kg/injection, schedule: Q01DX005 (ip), vehicle: saline 107 % of control | dose: 240.0 mg/kg/injection, schedule: Q01DX005 (ip), vehicle: saline 122 % of control | dose: 600.0 mg/kg/injection, schedule: Q01DX005 (ip), vehicle: saline 115 % of control

CC(C)CCOC(c1ccc2c(c1)OCO2)C(C)Br (configuration not stated)
inactive: [8] 94 % of control | [10] 87 % of control | [11] 94 % of control

N#Cc1ncc(C(Cl)(Cl)Cl)nc1Cl
inactive: [5] 103 % of control | dose: 25.0 mg/kg/injection, schedule: Q04DX003 (ip), vehicle: saline with Tween-80 100 % of control | [6] 105 % of control | dose: 50.0 mg/kg/injection, schedule: Q04DX003 (ip), vehicle: saline with Tween-80 100 % of control | [7] 105 % of control and 108 % of control | [8] 106 % of control | [9] 103 % of control | dose: 400.0 mg/kg/injection, schedule: Q01DX009 (ip), vehicle: saline with Tween-80 110 % of control
